Square brackets hold non-standard residues; d marks the D form. Peptide text beside a SMILES is read from it. Tyr(SO2F) = N[C@@H](Cc1ccc(OS(=O)(=O)F)cc1)C(=O)O; NMeA = CN[C@@H](C)C(=O)O
Columns and labels:
Plasma stability = type: in vitro ADME; settings: mouse plasma

Structure (SMILES)	Aqueous stability at physiological pH (Chemical)	Plasma stability (Plasma stability)
CN[C@@H](C)C(=O)N[C@@H](CNCc1ccc(S(=O)(=O)F)cc1)C(=O)N1CCC[C@H]1C(=O)N[C@@H](Cc1ccccc1)C(N)=O [Compound 3]	intermediate stability	
CN[C@@H](C)C(=O)N[C@@H](Cc1ccc(OS(=O)(=O)F)cc1)C(=O)N1CCC[C@H]1C(=O)N[C@@H](Cc1ccccc1)C(N)=O [Compound 4] (H-[NMeA][Tyr(SO2F)]PF-NH2)	the most stable	
CN[C@@H](C)C(=O)N[C@@H](CNC(=O)c1ccc(S(=O)(=O)F)cc1)C(=O)N1CCC[C@H]1C(=O)N[C@@H](Cc1ccccc1)C(N)=O [Compound 2]	the least stable	
CN[C@@H](C)C(=O)N[C@@H](CNCc1ccc(S(=O)(=O)F)cc1)C(=O)N1CCC[C@H]1C(=O)N[C@@H]1CCc2c(F)cccc21 [Compound 11, 4-((((S)-3-((S)-2-(((R)-4-fluoro-2,3-dihydro-1H-inden-1-yl)carbamoyl)pyrrolidin-1-yl)-2-((S)-2(methylamino)propanamido)-3-oxopropyl)amino)methyl)benzenesulfonyl fluoride]		completely degraded in plasma after 40 minutes

From publication PMC7577563 (Journal of medicinal chemistry, 2019)
